Four molecules from PMC9529944, “Molecular asymmetry of a photosynthetic supercomplex from green sulfur bacteria” (Nature Communications, 2022) can be followed below.

First the molecules themselves.
B1: PscD (natural protein, UniProt Q8KEP5 1-143, looked up)
chain: MQPQLSRPQTASNQVRKAVSGPWSGNAVHKAEKYFITSAKRDRDGKLQIELVPASGRRKLSPTPEMIRRLIDGEIEIYILTTQPDIAIDMNKEIIDMENRYVIDFDKRGVKWTMREIPVFYHEGKGLCVELHNKIYTLDQFFK
notes: PscD subunit of the reaction center of Chlorobaculum tepidum; also called PscD subunit
B2: Fenna-Matthews-Olson (FMO) complex (natural protein, UniProt Q46393 1-366, looked up)
chain: MALFGSNDVTTAHSDYEIVLEGGSSSWGKVKARAKVNAPPASPLLPADCDVKLNVKPLDPAKGFVRISAVFESIVDSTKNKLTIEADIANETKERRISVGEGMVSVGDFSHTFSFEGSVVNLFYYRSDAVRRNVPNPIYMQGRQFHDILMKVPLDNNDLIDTWEGTVKAIGSTGAFNDWIRDFWFIGPAFTALNEGGQRISRIEVNGLNTESGPKGPVGVSRWRFSHGGSGMVDSISRWAELFPSDKLNRPAQVEAGFRSDSQGIEVKVDGEFPGVSVDAGGGLRRILNHPLIPLVHHGMVGKFNNFNVDAQLKVVLPKGYKIRYAAPQYRSQNLEEYRWSGGAYARWVEHVCKGGVGQFEILYAQ
notes: FMO bacteriochlorophyll a protein of Chlorobaculum tepidum TLS; homotrimer, each monomer with eight BChl a; Two trimers (FMO1, FMO2) of the same protein sit on one reaction center in the RC-FMO2 structure; they are one molecule here; also called FMO trimer; FMO1

The target in one data set is T1, PscB (Chlorobaculum tepidum, UniProt Q8KAY1).
T1 construct: native subunit in the RC-FMO2 supercomplex, no tags; loop 17-129 unmodelled; with Photosystem P840 reaction center, large subunit
The data set can be described thus: cryo-EM structure, RC-FMO2 […] Å. The data set is classed as binding. As to conditions: FA and FB clusters.

Data set [1] concerns the target T2, GsbRC core (PscA dimer) in the RC-FMO2 photosynthetic supercomplex (Chlorobaculum tepidum, UniProt Q8KAY0).
T2 construct: gene CT2020; native complex from membranes of C. tepidum, DDM-solubilized, no tags; homodimeric PscA core with associated subunits; PscE 59 residues modeled; with Photosystem P840 reaction center iron-sulfur protein; Cytochrome c (photosystem P840 reaction center cytochrome c-551); Photosystem P840 reaction center protein PscD; PscE, accessory membrane subunit; Ric1 protein; Bacteriochlorophyll a protein
The data set can be described thus: cryo-EM structure, RC-FMO2 […] Å. The data set is classed as binding.

The target of data set [2] is B2. Kind of data set: cryo-EM structure; single-particle cryo-EM of the native supercomplex extracted with DDM from C. tepidum membranes; RC-FMO2 at 3.08 Å (local 2.92 and 3.06 Å), RC-FMO1 at 3.49 Å; 20 mM Tris-Cl pH 8.0, 200 mM NaCl, 0.17 mM DDM. The conditions noted are these: both partners purified.
Data set [3] deals with the molecule itself. The data set is described as above.

In the case of `[S]1[Fe]2[S]3[S]4[Fe][S]2[Fe]4[Fe]13` [SF4, iron-sulfur cluster], the “cryo-EM structure, RC-FMO2 3.08 Å” value is “Cartoons are the protein residues that interact with the FeS clusters” on PscB; “The FeS clusters and P840 dimer that drive the ETC in RC-FMO2 are arranged similarly” in data set [1] (FX cluster at PscA dimer). On to `CC(C)=CCC/C(C)=C/C=C/C(C)=C/C=C/C(C)=C/C=C/C=C(C)/C=C/C=C(C)/C=C/c1c(C)ccc(C)c1C` [F26, chlorobactene], for which the “cryo-EM structure, RC-FMO2 3.08 Å” value in data set [1] (three molecules in RC core) was “four Chl a, three chlorobactenes (F26)”.

As for B1, the binding result in data set [2] was “binds”. For the molecule B2, the binding result in data set [3] was “binds”.
